{"source": "DBAASP", "test_in_all_cases": "≥ marks a high value that may be exact or a test limit, other limits are often not marked, values filed in µg/mL are converted to µM", "key": {"[1]": {"tested_on": "Candida albicans ATCC 10231"}, "[2]": {"tested_on": "Candida albicans ATCC 90028"}, "[3]": {"tested_on": "Cutibacterium acnes ATCC 11828"}, "[4]": {"tested_on": "Cutibacterium acnes ATCC 15725"}, "[5]": {"tested_on": "Cutibacterium acnes ATCC 18380"}, "[6]": {"tested_on": "Cutibacterium acnes ATCC 29903"}, "[7]": {"tested_on": "Cutibacterium acnes ATCC 31766"}, "[8]": {"tested_on": "Cutibacterium acnes ATCC 32548"}, "[9]": {"tested_on": "Cutibacterium acnes ATCC 33257"}, "[10]": {"tested_on": "Cutibacterium acnes ATCC 50247"}, "[11]": {"tested_on": "Enterococcus faecalis NCTC 12697"}, "[12]": {"tested_on": "Escherichia coli ATCC 25726"}, "[13]": {"tested_on": "Escherichia coli ATCC 8739"}, "[14]": {"tested_on": "Escherichia coli ATCC BAA-2340"}, "[15]": {"tested_on": "Klebsiella pneumoniae ATCC 43816"}, "[16]": {"tested_on": "Klebsiella pneumoniae ATCC BAA-1705"}, "[17]": {"tested_on": "Pseudomonas aeruginosa ATCC 9027"}, "[18]": {"tested_on": "Pseudomonas aeruginosa B004 V2S2B"}, "[19]": {"tested_on": "Staphylococcus aureus ATCC 25923"}, "[20]": {"tested_on": "Staphylococcus aureus ATCC 6538"}, "[21]": {"tested_on": "Staphylococcus aureus NCTC 12493"}, "Staphylococcus aureus": {"tested_on": "Staphylococcus aureus"}, "[22]": {"tested_on": "Enterobacter cloacae BCRC 10401"}, "[23]": {"tested_on": "Escherichia coli BCRC 10675"}, "[24]": {"tested_on": "Klebsiella aerogenes BCRC 10370"}, "[25]": {"tested_on": "Klebsiella oxytoca BCRC 13985"}, "Lactococcus garvieae": {"tested_on": "Lactococcus garvieae"}, "[26]": {"tested_on": "Listeria monocytogenes BCRC 14845"}, "[27]": {"tested_on": "Pseudomonas aeruginosa BCRC 10944"}, "[28]": {"tested_on": "Staphylococcus aureus BCRC 10780"}, "[29]": {"tested_on": "Staphylococcus aureus BCRC 10781"}, "[30]": {"tested_on": "Staphylococcus xylosus BCRC 12930"}, "[31]": {"tested_on": "Streptococcus equinus BCRC 14729"}, "Streptococcus iniae": {"tested_on": "Streptococcus iniae"}, "[32]": {"tested_on": "Vibrio alginolyticus BCRC 12829"}, "Vibrio alginolyticus": {"tested_on": "Vibrio alginolyticus"}, "[33]": {"tested_on": "Vibrio anguillarum serotype O1"}, "Vibrio harveyi": {"tested_on": "Vibrio harveyi"}, "[34]": {"tested_on": "Vibrio parahaemolyticus BCRC 10806"}, "Vibrio parahaemolyticus": {"tested_on": "Vibrio parahaemolyticus"}, "[35]": {"tested_on": "Yersinia enterocolitica BCRC 13999"}, "[36]": {"tested_on": "Acinetobacter baumannii ATCC 19606"}, "[37]": {"tested_on": "Escherichia coli ATCC 25922"}, "Escherichia coli D21": {"tested_on": "Escherichia coli D21"}, "Micrococcus luteus": {"tested_on": "Micrococcus luteus"}, "[38]": {"tested_on": "Pseudomonas aeruginosa ATCC 27853"}, "[39]": {"tested_on": "Staphylococcus aureus II ATCC 6538P"}, "[40]": {"tested_on": "Staphylococcus epidermidis LT1324"}, "Staphylococcus simulans": {"tested_on": "Staphylococcus simulans"}, "Escherichia coli K-12": {"tested_on": "Escherichia coli K-12"}, "Escherichia coli L-": {"tested_on": "Escherichia coli L-"}, "[41]": {"tested_on": "Klebsiella pneumoniae CIP 8291"}, "[42]": {"tested_on": "Lactococcus lactis subsp. cremoris I116"}, "Listeria ivanovii LMA 94": {"tested_on": "Listeria ivanovii LMA 94"}, "[43]": {"tested_on": "Staphylococcus aureus CIP 677"}, "[44]": {"tested_on": "Staphylococcus aureus USA 300"}}}
{"smiles": "CC[C@H](C)[C@H](NC(=O)[C@@H](NC(=O)CN)C(C)C)C(=O)N[C@H](C(=O)N[C@@H](CC(=O)O)C(=O)N[C@H](C(=O)N[C@@H](CC(C)C)C(=O)N[C@@H](CCCCN)C(=O)NCC(=O)N[C@@H](C)C(=O)N[C@@H](C)C(=O)N[C@@H](CCCCN)C(=O)N[C@H](C(=O)N[C@H](C(=O)N[C@@H](C)C(=O)N[C@@H](C)C(=O)N[C@@H](CCC(=O)O)C(=O)N[C@@H](CC(C)C)C(=O)N[C@@H](CC(C)C)C(=O)N[C@@H](CCCN=C(N)N)C(=O)N[C@@H](CCCCN)C(=O)N[C@@H](C)C(=O)N[C@@H](Cc1cnc[nH]1)C(=O)N[C@H]1CSSC[C@@H](C(=O)O)NC(=O)[C@H](CO)NC(=O)[C@H](CC(N)=O)NC(=O)[C@H]([C@@H](C)O)NC(=O)[C@H](CC(C)C)NC(=O)[C@H](CCCCN)NC1=O)C(C)C)[C@@H](C)O)[C@@H](C)O)[C@@H](C)CC", "note": "[GVIIDTLKGAAKTVAAELLRKAHCKLTNSC]", "values": [{"measurement": "MIC", "setting": "[1]", "value": "> 512", "unit": "µM"}, {"measurement": "MIC", "setting": "[2]", "value": "≥ 64", "unit": "µM"}, {"measurement": "MIC", "setting": "[3]", "value": 12.5, "unit": "µM"}, {"measurement": "MIC", "setting": "[4]", "value": 25, "unit": "µM"}, {"measurement": "MIC", "setting": "[5]", "value": 12.5, "unit": "µM"}, {"measurement": "MIC", "setting": "[6]", "value": 25, "unit": "µM"}, {"measurement": "MIC", "setting": "[7]", "value": 6, "unit": "µM"}, {"measurement": "MIC", "setting": "[8]", "value": 25, "unit": "µM"}, {"measurement": "MIC", "setting": "[9]", "value": 6, "unit": "µM"}, {"measurement": "MIC", "setting": "[10]", "value": 6, "unit": "µM"}, {"measurement": "MIC", "setting": "[11]", "value": "≥ 512", "unit": "µM"}, {"measurement": "MIC", "setting": "[12]", "value": "≥ 32", "unit": "µM"}, {"measurement": "MIC", "setting": "[13]", "value": 16, "unit": "µM"}, {"measurement": "MIC", "setting": "[14]", "value": "≥ 32", "unit": "µM"}, {"measurement": "MIC", "setting": "[15]", "value": "≥ 128", "unit": "µM"}, {"measurement": "MIC", "setting": "[16]", "value": "≥ 512", "unit": "µM"}, {"measurement": "MIC", "setting": "[17]", "value": 128, "unit": "µM"}, {"measurement": "MIC", "setting": "[18]", "value": "≥ 512", "unit": "µM"}, {"measurement": "MIC", "setting": "[19]", "value": 64, "unit": "µM"}, {"measurement": "MIC", "setting": "[20]", "value": 32, "unit": "µM"}, {"measurement": "MIC", "setting": "[21]", "value": "≥ 512", "unit": "µM"}, {"measurement": "MIC", "setting": "Staphylococcus aureus", "value": "> 512", "unit": "µM"}]}
{"smiles": "CC(C)C[C@H](NC(=O)[C@H](C)NC(=O)[C@H](CC(N)=O)NC(=O)[C@H](C)NC(=O)[C@H](Cc1ccccc1)NC(=O)[C@H](CCCCN)NC(=O)[C@H](CCCCN)NC(=O)[C@H](C)NC(=O)[C@H](CC(C)C)NC(=O)[C@H](CC(N)=O)NC(=O)[C@H](C)NC(=O)[C@H](CC(C)C)NC(=O)[C@H](CCCCN)NC(=O)[C@H](CCCCN)NC(=O)[C@H](C)NC(=O)[C@H](Cc1ccc(O)cc1)NC(=O)[C@H](CC(N)=O)NC(=O)[C@H](Cc1ccc(O)cc1)NC(=O)CN)C(=O)N[C@@H](Cc1c[nH]c2ccccc12)C(=O)O", "note": "[GYNYAKKLANLAKKFANALW]", "values": [{"measurement": "MIC", "setting": "[22]", "value": 3.5, "unit": "µM"}, {"measurement": "MIC", "setting": "[23]", "value": 3.5, "unit": "µM"}, {"measurement": "MIC", "setting": "[24]", "value": 7, "unit": "µM"}, {"measurement": "MIC", "setting": "[25]", "value": 7, "unit": "µM"}, {"measurement": "MIC", "setting": "Lactococcus garvieae", "value": 14, "unit": "µM"}, {"measurement": "MIC", "setting": "[26]", "value": 7, "unit": "µM"}, {"measurement": "MIC", "setting": "[27]", "value": 14, "unit": "µM"}, {"measurement": "MIC", "setting": "[28]", "value": 7, "unit": "µM"}, {"measurement": "MIC", "setting": "[29]", "value": 14, "unit": "µM"}, {"measurement": "MIC", "setting": "[30]", "value": 3.5, "unit": "µM"}, {"measurement": "MIC", "setting": "[31]", "value": "≥ 56", "unit": "µM"}, {"measurement": "MIC", "setting": "Streptococcus iniae", "value": 28, "unit": "µM"}, {"measurement": "MIC", "setting": "[32]", "value": "≥ 56", "unit": "µM"}, {"measurement": "MIC", "setting": "Vibrio alginolyticus", "value": 1.75, "unit": "µM"}, {"measurement": "MIC", "setting": "[33]", "value": 1.75, "unit": "µM"}, {"measurement": "MIC", "setting": "Vibrio harveyi", "value": 3.5, "unit": "µM"}, {"measurement": "MIC", "setting": "[34]", "value": "≥ 56", "unit": "µM"}, {"measurement": "MIC", "setting": "Vibrio parahaemolyticus", "value": 1.75, "unit": "µM"}, {"measurement": "MIC", "setting": "[35]", "value": 14, "unit": "µM"}]}
{"smiles": "CC(C)C[C@H](NC(=O)[C@H](CC(C)C)NC(=O)[C@H](CC(C)C)NC(=O)[C@H](CC(C)C)NC(=O)[C@H](CC(C)C)NC(=O)[C@H](CC(C)C)NC(=O)[C@H](CC(C)C)NC(=O)[C@H](CC(C)C)NC(=O)[C@H](CC(C)C)NC(=O)[C@H](CCCCN)NC(=O)[C@H](CCCCN)NC(=O)[C@@H](N)CCCCN)C(=O)N[C@@H](CCCCN)C(=O)N[C@@H](CCCCN)C(=O)N[C@@H](CCCCN)C(N)=O", "note": "[KKKLLLLLLLLLKKK]", "values": [{"measurement": "MIC", "setting": "[36]", "value": 50, "unit": "µM"}, {"measurement": "MIC", "setting": "[37]", "value": 50, "unit": "µM"}, {"measurement": "MIC", "setting": "Escherichia coli D21", "value": "≥ 50", "unit": "µM"}, {"measurement": "MIC", "setting": "Micrococcus luteus", "value": 16, "unit": "µM"}, {"measurement": "MIC", "setting": "[38]", "value": "> 50", "unit": "µM"}, {"measurement": "MIC", "setting": "[39]", "value": "≥ 50", "unit": "µM"}, {"measurement": "MIC", "setting": "[40]", "value": "≥ 32", "unit": "µM"}, {"measurement": "MIC", "setting": "Staphylococcus simulans", "value": "≥ 32", "unit": "µM"}]}
{"smiles": "CC[C@H](C)[C@H](NC(=O)[C@H](CCCCN)NC(=O)CNC(=O)[C@H](CC(C)C)NC(=O)[C@@H](NC(=O)[C@H](C)NC(=O)[C@H](CCCCN)NC(=O)CNC(=O)[C@H](C)NC(=O)CNC(=O)[C@H](CCCCN)NC(=O)[C@@H](NC(=O)[C@H](CCCCN)NC(=O)[C@@H](NC(=O)[C@H](Cc1c[nH]c2ccccc12)NC(=O)[C@H](CC(C)C)NC(=O)[C@H](CCC(=O)O)NC(=O)[C@H](CCCCN)NC(=O)[C@H](CC(C)C)NC(=O)[C@@H](N)CC(C)C)[C@@H](C)O)[C@@H](C)CC)C(C)C)C(=O)N[C@@H](CCCCN)C(=O)NCC(=O)N[C@@H](CC(C)C)C(=O)N[C@@H](CC(C)C)C(=O)O", "note": "[LLKELWTKIKGAGKAVLGKIKGLL]", "values": [{"measurement": "MIC", "setting": "Escherichia coli K-12", "value": 25, "unit": "µM"}, {"measurement": "MIC", "setting": "Escherichia coli L-", "value": "≥ 64", "unit": "µM"}, {"measurement": "MIC", "setting": "[41]", "value": "≥ 32", "unit": "µM"}, {"measurement": "MIC", "setting": "[42]", "value": 2, "unit": "µM"}, {"measurement": "MIC", "setting": "Listeria ivanovii LMA 94", "value": 4, "unit": "µM"}, {"measurement": "MIC", "setting": "[43]", "value": "≥ 32", "unit": "µM"}, {"measurement": "MIC", "setting": "[44]", "value": "≥ 85", "unit": "µM"}]}
